The values below come from patent US20100247931A1, “TREATING SURFACES TO ENHANCE BIO-COMPATIBILITY” (priority 2001, published 2010).

Common to all, as to type: physicochemical
A short description of data set [1]: Colchicine release from polymer coating into phosphate buffered saline (UV/Vis absorbance at 350 nm). The text has this: The stent was placed in a tube containing 4 mls of Phosphate Buffered Saline solution (prepared from tablets supplied by Sigma-Aldrich Chemical Co by dissolving 1 tablet in 200 mls of deionised water) and agitated by rolling. The saline solution was sampled at intervals and its colchicine content determined by monitoring its absorbance at 350 nm using UV/Vis Spectrometry. A calibration plot for various concentrations of Colchicine (4 to 99 micrograms) in solution against the solution's absorbance at 350 nm was constructed to convert sample's release absorbance into drug release values in micrograms per stent. The graph of Colchicine released against release time is plotted in FIG. 3.
1. Stainless steel strips approx 6-8 mm in width were cleaned in IPA with ultrasound for 15 mins, followed by drying at 130° C. for 30 mins 2. The plate was functionalised as in Example 2. 3. The amino group on the functionalised steel was then reacted with the ispcyano group of 3-(triethoxysilyl)isocyanate to form a urea linkage, yielding triethoxysilyl groups on the surface. This was performed by adding the stainless steel plate to a solution of 3-(triethoxysilyl) isocyanate (9 ml) in anhydrous toluene (219 ml). […] The colchicine was released by placing the strips in 4 mls of phosphate buffered saline (PBS) solution, placing on a spiromix and measuring the absorbance at 350 nm over a period of 100 hours 15. […]

Data set [2] is described as follows: Eosin Y coupling to amine groups of TMSPEA functionalised surface and release (absorbance at 517 nm). On the procedure:
Once rinsing had been completed, the sample was placed in a 50 ml sample tube and 4 mls of 0.1 M NaOH was pipetted into it, the sample tube was placed on the Spiramix and it was rolled for—5 minutes. 20 mls of deionised water was then pipetted into the solution and the absorbance of the resulting solution was recorded at 517 nm using a spectrophotometer. The absorbance value was then converted into an amount of eosin Y attached to the sample by using a calibration graph of absorbance readings for known amounts of eosin Y sodium salt. The absorbance reading for the release solution was 0.83 at 517 nm corresponding to 205 μg of eosinY.
All six samples were placed in sample tubes (100*16 mm R. B. tubes clarified polypropylene, Jencons PLC) and rolled on the Spiramix (Denley Spiramix 5) in approximately 4-6 mls of a 0.4% aqueous solution of eosin Y sodium salt (Sigma Aldrich chemical co) for approximately 1 hour.
Once rinsing had been completed, two samples from the ethanol rinsed and unrinse, d sets were placed in 50 ml sample tubes and 4 mls of 0.1 M NaOH was pipetted into each. The sample tubes were placed on the Spiramix and rolled for—5 minutes. 20 mls of deionised water was then pipetted into each sample and the absorbance of the resulting solution was recorded at 517 nm using a Jenway 6305 W/V is spectrophotometer. The values recorded were then converted into amounts of eosin Y attached to the samples by using a calibration graph of absorbance readings for known amounts of eosin Y sodium salt.
After drying for 2 hours at 50° C. the sample was stained with Eosin Y solution, visually examined and then released as detailed in the Eosin Y Coupling section of Example 6.

Data set [3] is described as follows: Mitoxantrone coupling and release from coated device (absorbance of release solution at 660 nm).
Experiment in data set [4]: as above
On the procedure: A 0.01% solution of mitoxantrone (Sigma Aldrich Chemical Co) was made up in deionised water. The samples are each immersed in 4 mls of the solution and left rolling on a Spiramix (Denley Spiramix 5) for—17 hours (Samples placed in 100*16 mm R. B. tube clarified polypropylene supplied by Jencons PLC.). After this time they were rinsed in deionised water until there was no evidence of the mitoxantrone being removed in the water. 4 mls of phosphate buffered saline solution (PBS) was then pipetted into a clean sample tube and the sample added. The samples were left in this solution for 1 hour on the Spiramix, after which absorbances were recorded by spectrophotometer at 660 nm. The solutions were then transferred back into the appropriate sample tube and 5 drops of 1M hydrochloric acid added from a dropping pipette. The samples were left for 10 minutes rolling on the Spiramix, after which an absorbance reading was recorded. Further readings were obtained after 1 hour or more to give a value for complete release of mitoxantrone. The absorbances recorded for the release solutions at 660 nm gave an indication of the amount of mitoxantrone attached to the carboxymethylcellulose coating on each sample. By use of a calibration curve plotting known concentrations of mitoxantrone solutions against the absorbance of the solution at 660 nm, the mitoxantrone concentration of the release solution was determined and from this the amount of mitoxantrone attached to each device. An absorbance of 0.09 at 660 nm was obtained for the 1 hour release in phosphate buffered saline solution, and an absorbance of 0.17 for the complete release of Mitoxantrone. This equates to approximately 31 micrograms of mitoxantrone attached to the stent.
The source holds these as a separate data set.

Setting [5] is: Example 2: stent coupled with poly(acrylic acid) partial sodium salt, Mw 2000.
[6] abbreviates: Example 9: heat exchange tubes coupled with polyacrylic acid sodium salt, Mw ca. 30,000.

“And” between values parts separate entries of the source, which are not always exact repeats. Identical values can stand only once. Counter-ions that a name gives are not always drawn.

In the case of `COc1cc2c(c(OC)c1OC)-c1ccc(OC)c(=O)cc1[C@@H](NC(C)=O)CC2` [colchicine], in data set [1] (Coating of poly(vinyl butyral-co-vinyl alcohol-co-vinyl acetate) and colchicine without poly(ethylene glycol)), the “Release of drug into phosphate buffered saline solution” value is “does not release the drug into phosphate buffered saline solution”. The “Total amount of drug released after sonication in 2-propanol” value in data set [1] (Example 14: strip coated with poly(vinyl butyral-co-vinyl alcohol-co-vinyl acetate) + poly(ethylene glycol) + colchicine, after 100 hours in PBS) is given as 320 u. g.

In the case of `O=C1OC2(c3ccccc31)c1cc(Br)c(O)c(Br)c1Oc1c2cc(Br)c(O)c1Br` [eosin Y, eosin Y sodium salt], the “Eosin Y attached to the sample” value in data set [2] (Example 6: TMSPEA functionalised tube (toluene, 30 minutes), calibration graph) was found to be 205 µg. Moreover, the “Absorbance of release solution at 517 nm” value in data set [2] (Example 6: TMSPEA functionalised tube (toluene, 30 minutes), released in 0.1 M NaOH) is on record as 0.83; in data set [2] (Example 15: tube functionalised with TMSPEA in tetrahydrofuran instead of toluene), 0.19.

With `O=C1c2c(O)ccc(O)c2C(=O)c2c(NCCNCCO)ccc(NCCNCCO)c21` [mitoxantrone], in data set [3] (setting [5]), the “Absorbance at 660 nm, released 10 minutes in PBS with 5 drops 1 M HCl” value came to 0.037 and the “Mitoxantrone attached to the stent” value was 7 micrograms. Moreover, the “Mitoxantrone attached to the heparin coated devices (complete release values)” value in data set [3] (Example 3: heparin coupled stainless steel heat exchange tubes) was 31 micrograms and 36 micrograms. Moreover, the “Mitoxantrone attachment of released stent” value in data set [3] (Example 7: commercially available stent, heparin/EDC Reaction Solution 1 of Example 6) was 9 micrograms. Also, in data set [3] (setting [6]), the “Absorbance at 660 nm, complete release of mitoxantrone” value came out at 0.33 and the “Mitoxantrone corresponding to complete release absorbance” value was 60 micrograms. Besides, the “Absorbance at 660 nm, complete release of mitoxantrone” value in data set [4] (Example 1: CMC coupled stent, PBS + 1M HCl) was determined as 0.17. In addition, the “Mitoxantrone attached to the stent” value in data set [4] (Example 1: CMC coupled stent, from calibration curve) is on record as “approximately 31 micrograms”. For the same molecule, in data set [4] (Example 1: stainless steel stent, TMSPEA functionalised, carboxymethylcellulose coupled), the “Absorbance at 660 nm, 1 hour release in phosphate buffered saline solution” value came to 0.09.
